Values quoted from earlier work as cited in patent US6114314A (priority 1994, dated 2000).

Columns and labels:
macrophages = details: tissue culture
experiment neoplasm = details: with Interleukin 2
[1] = in cross-linked hyaluronic acid gel
rabbit eye = details: in vivo

Compound	malfunction of macrophages (block due to excessive prostaglandin) (macrophages)	further results
CC(=O)Oc1ccccc1C(=O)O [ASA, acetylsalicylic acid]	can be altered	
COc1ccc2c(c1)c(CC(=O)O)c(C)n2C(=O)c1ccc(Cl)cc1 [indomethacin]	can be altered	cure of experiment neoplasm (experiment neoplasm): could effect a cure
COc1ccc2cc([C@H](C)C(=O)O)ccc2c1 [naproxen]	can be altered	
heparin		antithrombogenic activity [1]: retained its antithrombogenic activity
sodium hyaluronate [sodium hyaluronate (LifeCore)]		Biological Safety Testing, Rabbit Ocular Toxicity Test (rabbit eye): Passes
